Data from the supplement of paper PMC8617591.

Legend:
[1] = test system: Mycobacterium tuberculosis Erdman (autoluminescent); experiment: total FIC50 (Loewe) at 50% inhibition, three-drug combination (log2); higher = more antagonistic
Description: (§1)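 DiaMOND equipotent three-drug combination dose responses (10 doses, 1.5- or 2-fold spacing, centred on IC90) against autoluminescent M. tuberculosis Erdman in 8 in vitro models. Read-out is OD600, or luminescence for the intracellular and dormancy models, normalised to untreated wells. Hill-fit Einf, AUC25 and GRinf are potency metrics; FIC50 and FIC90 are total Loewe fractional inhibitory concentrations as log2 (negative = synergy).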

[2] = test system: Mycobacterium tuberculosis Erdman (autoluminescent); experiment: total FIC90 (Loewe) at 90% inhibition, three-drug combination (log2); higher = more antagonistic
Description: as §1

[3] = test system: Mycobacterium tuberculosis Erdman (autoluminescent); experiment: Einf, fitted maximum growth inhibition of three-drug combination (fraction); higher = stronger maximal inhibition
Description: as §1

[4] = test system: Mycobacterium tuberculosis Erdman (autoluminescent); experiment: AUC25, normalised area under dose response up to IC25 (three-drug combination) (fraction (0-1)); higher = more potent at low dose
Description: as §1

[5] = test system: Mycobacterium tuberculosis Erdman (autoluminescent); experiment: GRinf, maximum normalised growth rate inhibition (three-drug combination) (unitless (-1 to 1)); higher = less effect (negative = killing)
Description: as §1

CC[C@@H](CO)NCCN[C@@H](CC)CO [ethambutol] + NNC(=O)c1ccncc1 [isoniazid] + CC(=O)NC[C@H]1CN(c2ccc(N3CCOCC3)c(F)c2)C(=O)O1 [linezolid]
Details	AUC25, [4]	Einf, [3]	GRinf, [5]	total FIC50, [1]	total FIC90, [2]
in vitro model: acidic pH 5.7, time point: constant (~7 days, model-specific)	0.108	0.831	-0.311	0.672	–
in vitro model: acidic pH 5.7, time point: terminal (~4-5 doublings, model-specific)	0.0511	0.939	-0.218	1.64	0.241
in vitro model: intracellular J774, time point: constant = terminal	–	0.958	-0.189	–	-0.0766

Details	AUC25, [4]	Einf, [3]	GRinf, [5]	total FIC50, [1]	total FIC90, [2]
in vitro model: butyrate, time point: constant (~7 days, model-specific)	0.101	0.9	0.0696	0.578	–
in vitro model: butyrate, time point: terminal (~4-5 doublings, model-specific)	0.0839	0.943	0.0902	0.593	1.01
in vitro model: cholesterol 0.05 mM, time point: constant (~7 days, model-specific)	0.148	0.693	-0.305	-0.315	–
in vitro model: cholesterol 0.05 mM, time point: terminal (~4-5 doublings, model-specific)	0.166	0.918	-0.286	-1.8	–
in vitro model: cholesterol-high 0.2 mM, time point: constant (~7 days, model-specific)	0.102	0.925	-0.717	0.686	–
in vitro model: cholesterol-high 0.2 mM, time point: terminal (~4-5 doublings, model-specific)	0.121	1	-0.966	0.382	1.42
in vitro model: dormancy (butyrate + nitrate, low O2), time point: constant (~7 days, model-specific)	0.117	0.801	0.434	0.669	–
in vitro model: dormancy (butyrate + nitrate, low O2), time point: terminal (~4-5 doublings, model-specific)	0.1	0.971	-0.188	0.326	0.438
in vitro model: standard 7H9 glycerol, time point: constant = terminal	0.0661	0.911	0.099	0.88	–
in vitro model: valerate, time point: constant (~7 days, model-specific)	0.127	0.91	-0.184	0.573	–
in vitro model: valerate, time point: terminal (~4-5 doublings, model-specific)	0.0732	0.944	-0.0217	0.769	0.881

CC[C@@H](CO)NCCN[C@@H](CC)CO [ethambutol] + NNC(=O)c1ccncc1 [isoniazid] + CO[C@H]1/C=C/O[C@@]2(C)Oc3c(C)c(O)c4c(O)c(c(/C=N/N5CCN(C6CCCC6)CC5)c(O)c4c3C2=O)NC(=O)/C(C)=C\C=C\[C@H](C)[C@H](O)[C@@H](C)[C@@H](O)[C@@H](C)[C@H](OC(C)=O)[C@@H]1C [rifapentine]
Details	AUC25, [4]	Einf, [3]	GRinf, [5]	total FIC50, [1]	total FIC90, [2]
in vitro model: acidic pH 5.7, time point: constant (~7 days, model-specific)	0.116	0.926	-0.233	-0.0354	–
in vitro model: acidic pH 5.7, time point: terminal (~4-5 doublings, model-specific)	0.0443	0.974	-0.12	0.316	-0.0587
in vitro model: intracellular J774, time point: constant = terminal	–	0.961	-0.299	–	-1.77

Details	AUC25, [4]	Einf, [3]	GRinf, [5]	total FIC50, [1]	total FIC90, [2]
in vitro model: butyrate, time point: constant (~7 days, model-specific)	0.0656	0.919	-0.00839	0.419	–
in vitro model: butyrate, time point: terminal (~4-5 doublings, model-specific)	0.0504	0.961	0.0115	0.431	-0.175
in vitro model: cholesterol 0.05 mM, time point: constant (~7 days, model-specific)	0.0782	0.62	0.0218	0.251	–
in vitro model: cholesterol 0.05 mM, time point: terminal (~4-5 doublings, model-specific)	0.0679	0.705	0.236	0.672	–
in vitro model: cholesterol-high 0.2 mM, time point: constant (~7 days, model-specific)	0.0261	0.963	-0.465	1.28	–
in vitro model: cholesterol-high 0.2 mM, time point: terminal (~4-5 doublings, model-specific)	0.0378	1	-0.581	1.47	1.31
in vitro model: dormancy (butyrate + nitrate, low O2), time point: constant (~7 days, model-specific)	0.123	0.85	0.351	0.273	–
in vitro model: dormancy (butyrate + nitrate, low O2), time point: terminal (~4-5 doublings, model-specific)	0.118	0.99	-0.216	0.00837	0.792
in vitro model: standard 7H9 glycerol, time point: constant = terminal	0.0469	0.904	0.0971	0.347	–
in vitro model: valerate, time point: constant (~7 days, model-specific)	0.0468	0.866	0.0486	0.524	–
in vitro model: valerate, time point: terminal (~4-5 doublings, model-specific)	0.0336	0.929	0.0406	0.609	-0.125

CC[C@@H](CO)NCCN[C@@H](CC)CO [ethambutol] + NNC(=O)c1ccncc1 [isoniazid] + CO[C@H]1/C=C/O[C@@]2(C)Oc3c(C)c(O)c4c(O)c(c(/C=N/N5CCN(C)CC5)c(O)c4c3C2=O)NC(=O)/C(C)=C\C=C\[C@H](C)[C@H](O)[C@@H](C)[C@@H](O)[C@@H](C)[C@H](OC(C)=O)[C@@H]1C [rifampicin]
Details	AUC25, [4]	Einf, [3]	GRinf, [5]	total FIC50, [1]	total FIC90, [2]
in vitro model: acidic pH 5.7, time point: constant (~7 days, model-specific)	0.104	0.899	-0.0987	-0.427	–
in vitro model: acidic pH 5.7, time point: terminal (~4-5 doublings, model-specific)	0.0385	0.97	-0.0837	0.126	-0.549
in vitro model: intracellular J774, time point: constant = terminal	–	0.967	-0.321	–	-2.19

Details	AUC25, [4]	Einf, [3]	GRinf, [5]	total FIC50, [1]	total FIC90, [2]
in vitro model: butyrate, time point: constant (~7 days, model-specific)	0.0804	0.936	-0.0122	0.2	–
in vitro model: butyrate, time point: terminal (~4-5 doublings, model-specific)	0.0612	0.972	-0.0091	0.238	-0.403
in vitro model: cholesterol 0.05 mM, time point: constant (~7 days, model-specific)	0.0636	0.617	0.000894	-0.456	–
in vitro model: cholesterol 0.05 mM, time point: terminal (~4-5 doublings, model-specific)	0.0895	0.867	0.194	0.41	–
in vitro model: cholesterol-high 0.2 mM, time point: constant (~7 days, model-specific)	0.0326	0.915	-0.23	0.757	–
in vitro model: cholesterol-high 0.2 mM, time point: terminal (~4-5 doublings, model-specific)	0.0525	0.997	-0.778	0.99	0.871
in vitro model: dormancy (butyrate + nitrate, low O2), time point: constant (~7 days, model-specific)	0.0838	0.872	0.364	-0.262	–
in vitro model: dormancy (butyrate + nitrate, low O2), time point: terminal (~4-5 doublings, model-specific)	0.079	0.992	-0.165	0.173	-0.24
in vitro model: standard 7H9 glycerol, time point: constant = terminal	0.0526	0.9	0.116	0.199	–
in vitro model: valerate, time point: constant (~7 days, model-specific)	0.0369	0.853	0.000652	0.253	–
in vitro model: valerate, time point: terminal (~4-5 doublings, model-specific)	0.0264	0.932	0.0672	0.302	-0.619
